Data taken from ChEMBL document CHEMBL5375979, “Chemical, Biochemical, Cellular, and Physiological Characterization of Leucettinib-21, a Down Syndrome and Alzheimer's Disease Drug Candidate” (J Med Chem, 2023).

Assays:
[1] = target: Dual specificity protein kinase CLK1 (Homo sapiens, UniProt P49759)
[2] = target: T1, Dual specificity protein kinase CLK4 (Homo sapiens, UniProt Q9HAZ1)
[3] = target: T2, AP2-associated protein kinase 1 (Homo sapiens, UniProt Q2M2I8)
Target sequence in this assay (Q2M2I8 whole entry): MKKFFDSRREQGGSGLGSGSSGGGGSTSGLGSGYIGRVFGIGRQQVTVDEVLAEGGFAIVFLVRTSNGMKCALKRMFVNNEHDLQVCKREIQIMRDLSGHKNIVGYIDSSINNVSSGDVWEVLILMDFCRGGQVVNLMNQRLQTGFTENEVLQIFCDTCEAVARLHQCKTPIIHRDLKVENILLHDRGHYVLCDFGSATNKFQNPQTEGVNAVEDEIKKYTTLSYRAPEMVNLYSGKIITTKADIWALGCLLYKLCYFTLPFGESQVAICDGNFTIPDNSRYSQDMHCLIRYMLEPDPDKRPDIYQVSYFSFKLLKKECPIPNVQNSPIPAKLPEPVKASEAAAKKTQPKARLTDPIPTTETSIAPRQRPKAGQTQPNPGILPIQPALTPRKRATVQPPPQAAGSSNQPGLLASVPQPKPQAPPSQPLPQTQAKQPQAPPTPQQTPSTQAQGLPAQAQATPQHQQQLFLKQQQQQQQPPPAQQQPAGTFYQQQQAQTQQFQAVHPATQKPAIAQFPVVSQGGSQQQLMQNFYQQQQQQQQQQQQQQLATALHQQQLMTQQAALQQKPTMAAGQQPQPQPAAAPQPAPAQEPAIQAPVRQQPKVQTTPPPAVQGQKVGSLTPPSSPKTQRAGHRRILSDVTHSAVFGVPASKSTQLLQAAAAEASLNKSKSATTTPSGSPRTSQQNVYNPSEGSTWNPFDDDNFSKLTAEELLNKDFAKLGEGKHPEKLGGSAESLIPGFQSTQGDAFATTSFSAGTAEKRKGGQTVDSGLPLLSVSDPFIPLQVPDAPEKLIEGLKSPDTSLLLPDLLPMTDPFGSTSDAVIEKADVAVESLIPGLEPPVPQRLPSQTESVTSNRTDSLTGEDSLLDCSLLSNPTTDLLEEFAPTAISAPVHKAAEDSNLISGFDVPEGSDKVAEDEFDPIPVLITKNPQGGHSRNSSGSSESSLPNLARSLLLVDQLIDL
Description: Inhibition of human AAK1 assessed as remaining activity by eurofins-cerep kinase profiler analysis

[4] = target: Cyclin-dependent kinase-like 1 (Homo sapiens, UniProt Q00532)
Chain of Cyclin-dependent kinase-like 1 (Q00532 whole entry): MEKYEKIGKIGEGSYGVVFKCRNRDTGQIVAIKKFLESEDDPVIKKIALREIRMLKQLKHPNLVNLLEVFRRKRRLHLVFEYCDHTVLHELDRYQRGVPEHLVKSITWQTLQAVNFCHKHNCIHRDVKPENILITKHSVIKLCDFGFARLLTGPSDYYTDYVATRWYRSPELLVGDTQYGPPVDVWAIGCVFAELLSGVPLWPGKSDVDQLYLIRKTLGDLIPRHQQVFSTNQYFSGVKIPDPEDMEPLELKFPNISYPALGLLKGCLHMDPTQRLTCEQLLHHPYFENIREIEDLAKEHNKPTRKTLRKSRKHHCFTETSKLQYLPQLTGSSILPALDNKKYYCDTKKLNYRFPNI
Description: Inhibition of human CDKL1 assessed as remaining activity by eurofins-cerep kinase profiler analysis

[5] = target: Cyclin-dependent kinase-like 2 (Homo sapiens, UniProt Q92772)
Description: Inhibition of human CDKL2 assessed as remaining activity by eurofins-cerep kinase profiler analysis

[6] = target: Cyclin-dependent kinase-like 3 (Homo sapiens, UniProt Q8IVW4)
Description: Inhibition of human CDKL3 assessed as remaining activity by eurofins-cerep kinase profiler analysis

[7] = target: Cyclin-dependent kinase-like 4 (Homo sapiens, UniProt Q5MAI5)
Description: Inhibition of human CDKL4 assessed as remaining activity by eurofins-cerep kinase profiler analysis

[8] = target: Cyclin-dependent kinase-like 5 (Homo sapiens, UniProt O76039)
Chain of Cyclin-dependent kinase-like 5 (O76039 whole entry): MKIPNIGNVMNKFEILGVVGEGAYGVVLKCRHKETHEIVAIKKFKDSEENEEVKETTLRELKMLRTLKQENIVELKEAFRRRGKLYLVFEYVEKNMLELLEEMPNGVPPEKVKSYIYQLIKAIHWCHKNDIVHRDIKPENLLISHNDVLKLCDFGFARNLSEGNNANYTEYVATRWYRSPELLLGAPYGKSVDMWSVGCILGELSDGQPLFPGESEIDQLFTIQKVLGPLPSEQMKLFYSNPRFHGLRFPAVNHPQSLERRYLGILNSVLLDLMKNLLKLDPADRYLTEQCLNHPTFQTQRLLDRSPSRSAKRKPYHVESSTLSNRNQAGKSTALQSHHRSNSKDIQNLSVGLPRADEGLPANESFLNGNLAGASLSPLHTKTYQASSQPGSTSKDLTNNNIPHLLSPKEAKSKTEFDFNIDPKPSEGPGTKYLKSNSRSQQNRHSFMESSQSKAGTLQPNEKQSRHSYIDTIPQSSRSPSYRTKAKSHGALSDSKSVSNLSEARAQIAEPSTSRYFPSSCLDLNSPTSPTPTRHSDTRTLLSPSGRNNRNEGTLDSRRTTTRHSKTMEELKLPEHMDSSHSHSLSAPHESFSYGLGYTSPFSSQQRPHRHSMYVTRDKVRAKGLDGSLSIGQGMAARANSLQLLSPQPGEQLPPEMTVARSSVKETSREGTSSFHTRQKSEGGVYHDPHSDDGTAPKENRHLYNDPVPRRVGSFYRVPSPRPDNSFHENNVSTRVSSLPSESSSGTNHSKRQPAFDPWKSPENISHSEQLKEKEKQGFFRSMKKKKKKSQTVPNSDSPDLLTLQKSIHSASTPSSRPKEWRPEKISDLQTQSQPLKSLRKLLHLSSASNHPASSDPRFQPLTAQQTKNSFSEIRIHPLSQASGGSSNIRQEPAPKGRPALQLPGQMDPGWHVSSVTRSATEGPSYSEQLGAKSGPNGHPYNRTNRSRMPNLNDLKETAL
Description: Inhibition of human CDKL5 assessed as remaining activity by eurofins-cerep kinase profiler analysis

[9] = target: Dual specificity protein kinase CLK2 (Homo sapiens, UniProt P49760)
Description: Inhibition of human CLK2 assessed as remaining activity by eurofins-cerep kinase profiler analysis

[10] = target: Dual specificity protein kinase CLK3 (Homo sapiens, UniProt P49761)
Description: Inhibition of human CLK3 assessed as remaining activity by eurofins-cerep kinase profiler analysis

[11] = target: T1, Dual specificity protein kinase CLK4; remark: listed apart in the source
[12] = target: T3, Dual specificity tyrosine-phosphorylation-regulated kinase 2 (Homo sapiens, UniProt Q92630)
T3 sequence (Q92630 whole entry): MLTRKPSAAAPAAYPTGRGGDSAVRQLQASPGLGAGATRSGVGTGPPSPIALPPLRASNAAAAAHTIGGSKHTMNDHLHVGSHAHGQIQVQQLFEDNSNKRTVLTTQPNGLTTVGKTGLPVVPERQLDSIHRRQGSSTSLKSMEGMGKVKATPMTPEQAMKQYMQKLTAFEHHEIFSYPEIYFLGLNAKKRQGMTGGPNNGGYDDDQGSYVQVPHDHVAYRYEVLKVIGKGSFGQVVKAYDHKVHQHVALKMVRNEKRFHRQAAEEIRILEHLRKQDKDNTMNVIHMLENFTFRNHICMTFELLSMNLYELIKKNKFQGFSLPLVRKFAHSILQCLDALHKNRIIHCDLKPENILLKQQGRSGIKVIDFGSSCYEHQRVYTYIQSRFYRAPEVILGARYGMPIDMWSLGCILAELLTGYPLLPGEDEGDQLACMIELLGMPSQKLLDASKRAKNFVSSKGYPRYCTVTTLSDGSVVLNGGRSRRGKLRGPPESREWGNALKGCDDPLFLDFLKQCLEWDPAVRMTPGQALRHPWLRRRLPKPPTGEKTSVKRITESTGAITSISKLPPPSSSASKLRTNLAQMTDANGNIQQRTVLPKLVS
Description: Inhibition of human DYRK2 assessed as remaining activity by eurofins-cerep kinase profiler analysis

[13] = target: T4, Dual specificity tyrosine-phosphorylation-regulated kinase 3 (Homo sapiens, UniProt O43781)
T4 sequence (O43781 whole entry): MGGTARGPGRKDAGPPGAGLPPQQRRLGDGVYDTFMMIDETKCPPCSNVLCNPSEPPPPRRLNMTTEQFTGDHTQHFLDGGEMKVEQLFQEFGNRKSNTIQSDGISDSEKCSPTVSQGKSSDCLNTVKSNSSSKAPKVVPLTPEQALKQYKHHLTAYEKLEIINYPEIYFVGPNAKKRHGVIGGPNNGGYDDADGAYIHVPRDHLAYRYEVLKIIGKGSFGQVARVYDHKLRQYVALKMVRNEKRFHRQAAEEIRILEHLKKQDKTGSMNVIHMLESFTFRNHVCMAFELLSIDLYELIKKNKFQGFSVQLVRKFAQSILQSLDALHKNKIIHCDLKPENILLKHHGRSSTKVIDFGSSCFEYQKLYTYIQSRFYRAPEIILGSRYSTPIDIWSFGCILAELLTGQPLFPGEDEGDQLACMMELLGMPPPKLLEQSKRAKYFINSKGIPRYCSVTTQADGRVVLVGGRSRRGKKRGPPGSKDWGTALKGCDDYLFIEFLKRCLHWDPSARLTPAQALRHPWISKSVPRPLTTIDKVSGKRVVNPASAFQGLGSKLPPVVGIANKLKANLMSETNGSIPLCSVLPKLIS
Description: Inhibition of human DYRK3 assessed as remaining activity by eurofins-cerep kinase profiler analysis

[14] = target: Homeodomain-interacting protein kinase 1 (Homo sapiens, UniProt Q86Z02)
Description: Inhibition of human HIPK1 assessed as remaining activity by eurofins-cerep kinase profiler analysis

[15] = target: T5, Homeodomain-interacting protein kinase 2 (Homo sapiens, UniProt Q9H2X6)
Target sequence in this assay (Q9H2X6 whole entry): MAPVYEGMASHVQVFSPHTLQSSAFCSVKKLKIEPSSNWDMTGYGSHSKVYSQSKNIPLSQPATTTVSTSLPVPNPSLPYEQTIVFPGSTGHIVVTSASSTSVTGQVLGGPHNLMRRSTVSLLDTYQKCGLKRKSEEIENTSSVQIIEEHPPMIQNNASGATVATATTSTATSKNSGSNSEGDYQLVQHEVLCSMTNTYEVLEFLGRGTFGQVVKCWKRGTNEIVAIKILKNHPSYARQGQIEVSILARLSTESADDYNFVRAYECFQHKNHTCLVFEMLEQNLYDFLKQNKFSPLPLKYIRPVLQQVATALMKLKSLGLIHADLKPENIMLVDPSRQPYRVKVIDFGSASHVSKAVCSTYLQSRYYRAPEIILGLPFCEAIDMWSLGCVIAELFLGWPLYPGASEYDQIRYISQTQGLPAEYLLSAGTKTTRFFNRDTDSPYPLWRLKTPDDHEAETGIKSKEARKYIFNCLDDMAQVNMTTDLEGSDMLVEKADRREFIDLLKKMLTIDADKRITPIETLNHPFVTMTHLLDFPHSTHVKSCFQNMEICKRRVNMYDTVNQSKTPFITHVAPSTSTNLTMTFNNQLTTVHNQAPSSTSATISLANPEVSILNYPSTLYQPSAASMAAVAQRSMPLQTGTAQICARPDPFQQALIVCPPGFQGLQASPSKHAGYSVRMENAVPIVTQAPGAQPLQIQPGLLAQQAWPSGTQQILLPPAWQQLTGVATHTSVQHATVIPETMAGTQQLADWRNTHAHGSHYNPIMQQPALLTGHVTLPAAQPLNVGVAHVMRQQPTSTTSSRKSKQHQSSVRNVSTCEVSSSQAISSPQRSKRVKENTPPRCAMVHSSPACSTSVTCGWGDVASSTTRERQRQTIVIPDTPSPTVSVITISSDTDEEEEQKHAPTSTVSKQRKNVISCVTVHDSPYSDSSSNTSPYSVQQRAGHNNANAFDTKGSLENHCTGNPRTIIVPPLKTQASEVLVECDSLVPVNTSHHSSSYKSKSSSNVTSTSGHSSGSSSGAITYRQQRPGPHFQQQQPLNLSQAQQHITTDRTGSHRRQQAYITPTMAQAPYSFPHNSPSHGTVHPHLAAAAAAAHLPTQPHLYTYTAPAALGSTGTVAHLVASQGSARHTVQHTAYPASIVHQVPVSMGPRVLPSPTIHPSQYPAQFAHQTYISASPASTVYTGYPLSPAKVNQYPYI
Description: Inhibition of human HIPK2 assessed as remaining activity by eurofins-cerep kinase profiler analysis

[16] = target: Homeodomain-interacting protein kinase 3 (Homo sapiens, UniProt Q9H422)
Description: Inhibition of human HIPK3 assessed as remaining activity by eurofins-cerep kinase profiler analysis

[17] = target: Homeodomain-interacting protein kinase 4 (Homo sapiens, UniProt Q8NE63)
Chain of Homeodomain-interacting protein kinase 4 (Q8NE63 whole entry): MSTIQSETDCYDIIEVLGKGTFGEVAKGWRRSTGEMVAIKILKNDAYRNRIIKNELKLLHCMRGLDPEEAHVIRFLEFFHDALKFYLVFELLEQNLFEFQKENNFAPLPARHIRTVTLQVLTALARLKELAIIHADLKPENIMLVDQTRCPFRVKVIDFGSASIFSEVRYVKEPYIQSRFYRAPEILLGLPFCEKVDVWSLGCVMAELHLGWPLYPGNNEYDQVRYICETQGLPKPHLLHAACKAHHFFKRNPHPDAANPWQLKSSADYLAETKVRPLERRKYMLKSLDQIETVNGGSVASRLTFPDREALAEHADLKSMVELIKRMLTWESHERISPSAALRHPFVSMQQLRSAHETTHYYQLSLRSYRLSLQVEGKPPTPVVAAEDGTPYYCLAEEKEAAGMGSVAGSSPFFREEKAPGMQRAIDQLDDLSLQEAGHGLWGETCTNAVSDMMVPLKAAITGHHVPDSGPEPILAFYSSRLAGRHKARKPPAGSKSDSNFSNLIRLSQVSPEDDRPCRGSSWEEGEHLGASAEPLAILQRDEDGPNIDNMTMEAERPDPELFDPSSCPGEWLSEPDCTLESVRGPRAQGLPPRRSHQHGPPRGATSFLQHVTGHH
Description: Inhibition of human HIPK4 assessed as remaining activity by eurofins-cerep kinase profiler analysis

Tribbles homolog 2 = Tribbles homolog 2 (Homo sapiens, UniProt Q92519)
Description: Inhibition of human TRB2 assessed as remaining activity by eurofins-cerep kinase profiler analysis

[18] = target: Dual specificity tyrosine-phosphorylation-regulated kinase 2 (Homo sapiens) (UniProt Q92630); conditions: dose 10.0 µM
[19] = target: T2, AP2-associated protein kinase 1; conditions: dose 10.0 µM
Target sequence in this assay (Q2M2I8 whole entry, looked up): as the sequence (Q2M2I8 whole entry) above

[20] = target: Glycogen synthase kinase-3 beta (Homo sapiens) (UniProt P49841); conditions: dose 10.0 µM
[21] = target: Myotonin-protein kinase (Homo sapiens) (UniProt Q09013); conditions: dose 10.0 µM
[22] = target: Casein kinase II subunit alpha (Homo sapiens) (UniProt P68400); conditions: dose 10.0 µM
[23] = target: Aurora kinase A (Homo sapiens) (UniProt O14965); conditions: dose 10.0 µM
Chain of Aurora kinase A (Homo sapiens) (O14965 whole entry): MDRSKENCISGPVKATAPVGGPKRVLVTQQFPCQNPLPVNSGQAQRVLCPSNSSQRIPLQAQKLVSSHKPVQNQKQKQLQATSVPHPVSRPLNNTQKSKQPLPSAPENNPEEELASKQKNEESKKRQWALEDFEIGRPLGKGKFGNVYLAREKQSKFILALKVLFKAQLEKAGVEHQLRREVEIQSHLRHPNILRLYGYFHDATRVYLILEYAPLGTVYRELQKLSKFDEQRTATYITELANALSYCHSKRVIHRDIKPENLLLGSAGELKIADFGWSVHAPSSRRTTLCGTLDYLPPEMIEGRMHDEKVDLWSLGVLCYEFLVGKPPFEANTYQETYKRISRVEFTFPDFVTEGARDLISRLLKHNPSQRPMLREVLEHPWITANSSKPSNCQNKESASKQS

[24] = target: Cyclin-G-associated kinase (Homo sapiens) (UniProt O14976); conditions: dose 10.0 µM
[25] = target: T5, Homeodomain-interacting protein kinase 2; conditions: dose 10.0 µM
Target sequence in this assay (Q9H2X6 whole entry, looked up): as the sequence (Q9H2X6 whole entry) above

[26] = target: Maternal embryonic leucine zipper kinase (Homo sapiens) (UniProt Q14680); conditions: dose 10.0 µM
[27] = target: Calcium/calmodulin-dependent protein kinase kinase 2 (Homo sapiens) (UniProt Q96RR4); conditions: dose 10.0 µM
[28] = target: Serine/threonine-protein kinase PLK4 (Homo sapiens) (UniProt O00444); conditions: dose 10.0 µM
[29] = target: Serine/threonine-protein kinase PIM (Homo sapiens) (UniProt P11309+Q9P1W9+Q86V86); conditions: dose 10.0 µM

T1 sequence (Q9HAZ1 whole entry): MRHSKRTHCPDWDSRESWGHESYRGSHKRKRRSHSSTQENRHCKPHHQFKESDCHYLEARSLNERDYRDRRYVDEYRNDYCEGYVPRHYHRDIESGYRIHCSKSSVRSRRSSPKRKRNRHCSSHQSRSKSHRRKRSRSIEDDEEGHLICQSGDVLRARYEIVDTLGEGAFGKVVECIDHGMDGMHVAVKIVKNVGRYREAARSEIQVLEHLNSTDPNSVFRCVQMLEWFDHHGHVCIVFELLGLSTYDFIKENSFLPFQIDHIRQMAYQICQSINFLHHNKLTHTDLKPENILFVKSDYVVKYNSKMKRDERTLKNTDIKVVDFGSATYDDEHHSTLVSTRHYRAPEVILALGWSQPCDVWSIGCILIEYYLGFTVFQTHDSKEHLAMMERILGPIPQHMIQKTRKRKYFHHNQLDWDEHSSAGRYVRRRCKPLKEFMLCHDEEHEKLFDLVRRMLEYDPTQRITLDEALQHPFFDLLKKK

COC[C@@H](CC(C)C)NC1=N/C(=C\c2ccc3scnc3c2)C(=O)N1
IC50 [1]: > 10 µM | IC50 [2]: > 10 µM | IC50 [3]: Not Active | IC50 [4]: > 1000 nM | IC50 [5]: > 1000 nM | IC50 [6]: > 1000 nM | IC50 [7]: > 1000 nM | IC50 [8]: > 10 µM | IC50 [9]: > 1000 nM | IC50 [10]: > 1000 nM | IC50 [11]: > 1000 nM | IC50 [12]: > 1000 nM | IC50 [13]: > 1000 nM | IC50 [14]: > 10 µM | IC50 [15]: > 10 µM | IC50 [16]: > 10 µM | IC50 [17]: > 10 µM | IC50 (Tribbles homolog 2): > 1000 nM | ΔTm [18]: 1.7 °C | ΔTm [19]: 6 °C | ΔTm [20]: 2.1 °C | ΔTm [21]: 1.1 °C | ΔTm [22]: 1.4 °C | ΔTm [23]: 1.4 °C | ΔTm [24]: 3.5 °C | ΔTm [25]: 0.6 °C | ΔTm [26]: 0.4 °C | ΔTm [27]: -1.2 °C | ΔTm [28]: 1.4 °C | ΔTm [29]: 4.5 °C
